Experiment [1] addresses T1, CB2R (hCB2R) (Homo sapiens, UniProt P34972).
T1 construct: gene CNR2; expressed in HEK-293T cells
Put plainly: [3H]CP-55, […] competition binding, HEK-293T membranes. The note with it: read-out: CB2R Ki [μM]^[b].

Experiment [2] deals with T2, CB1R (hCB1R) (Homo sapiens, UniProt P21554).
T2 construct: gene CNR1; expressed in HEK-293T cells; membrane fractions
The description is as above. The note with it: read-out: CB1R Ki [μM]^[b].

The target of experiment [3] is T2, CB1R (hCB1R). Put plainly: biochemical. Format: HEK-293T membranes. The arrangement: [3H]CP-55,940 competition radioligand binding, membrane filtration, scintillation counting. The text has this: (§1) In vitro binding affinities of the alleged bitopic ligands 18–29 (Table 1) and the corresponding monovalent counterparts 6–17 (Table S1) were obtained from [^3H]CP‐55,940 competition‐binding assays using membrane fractions of the human CB1R and CB2R, respectively, expressed in HEK‐293T cells. […] Addition of the second pharmacophore makes bivalent ligands capable of binding CB2R in a selective manner. Optimal spacer length for N1‐ and N2‐ethyl derivatives is from 10 (n=8) to 14 (n=12) […]. S23 Aldrich, Madrid, Spain). Membranes were resuspended in the corresponding buffer and were incubated (90 min at 30 °C) with the radioligand and each compound at a high concentration (40 μM) with the purpose of determining the % of radioligand displacement. […] Nonspecific binding was determined with 10 μM [compound left out] (Sigma-Aldrich, Madrid, Spain) and total radioligand binding by incubation with the membranes in the absence of any compound. Filtration was performed by a Harvester filtermate (PerkinElmer, Boston, MA, USA) with Filtermat A GF/C filters pretreated with polyethylenimine 0.05%. After filtering, the filter was washed nine times with binding buffer and dried, and a melt-on scintillation sheet (MeltilexTM A, PerkinElmer, Boston, MA, USA) was melted onto it. Then, radioactivity was quantified by a […] (Wallac MicroBeta Trilux, PerkinElmer, Boston, MA, USA). Competition binding data were analyzed by using GraphPad Prism, version 5.02 (GraphPad Software Inc., San Diego, CA, USA), and Ki values are expressed as the mean ± SEM of at least three experiments performed in triplicate for each. 2.2- cAMP determination assays. Determination of cAMP levels in HEK293 cells stably expressing the CB2R was performed using the Lance-Ultra cAMP kit (PerkinElmer) according to the manufacturer’s instructions. Briefly, HEK293 cells expressing the CB2R were dispensed in white 384-well microplates at a density of 5.000 cells per well. Finally, cells were incubated for 60 min at room temperature with HTRF assay reagents, and fluorescence at 665 nm was analyzed on a PHERAstar Flagship microplate reader equipped with an HTRF optical module (BMG Labtech). Data analysis was made based on the fluorescence ratio emitted by the labeled cAMP probe (665 nm) over the light emitted by the europium cryptate-labeled anti-cAMP antibody (620 nm). A standard curve was used to calculate cAMP concentration. Forskolin stimulated cAMP levels were normalized to 100%. Data was analyzed by using […]

The target of experiment [4] is T1, CB2R (hCB2R). Put plainly: biochemical. Format: HEK-293T membranes. The arrangement: [3H]CP-55,940 competition radioligand binding, membrane filtration, scintillation counting.
From the text: as §1

For experiment [5], the target named is T1, CB2R (hCB2R). As to the kind of experiment: inhibition of forskolin-induced cAMP, HEK-293T cells. Format: cell-based. The note with it: read-out: Wild type / pEC50 (converted).

The values that follow come from article PMC7756656, “Discovery of Homobivalent Bitopic Ligands of the Cannabinoid CB2 Receptor” (Chemistry (Weinheim an Der Bergstrasse, Germany), 2020).

T1 sequence (P34972 whole entry): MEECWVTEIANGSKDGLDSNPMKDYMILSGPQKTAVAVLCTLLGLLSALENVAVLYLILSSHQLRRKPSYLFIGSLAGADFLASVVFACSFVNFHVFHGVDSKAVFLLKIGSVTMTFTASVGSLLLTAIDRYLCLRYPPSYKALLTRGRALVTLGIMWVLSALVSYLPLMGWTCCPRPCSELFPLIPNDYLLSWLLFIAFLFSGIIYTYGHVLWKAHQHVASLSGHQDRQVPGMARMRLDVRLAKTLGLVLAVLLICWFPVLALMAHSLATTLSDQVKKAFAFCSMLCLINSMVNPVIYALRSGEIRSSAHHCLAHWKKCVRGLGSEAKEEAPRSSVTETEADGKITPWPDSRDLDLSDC
T2 sequence (P21554 whole entry): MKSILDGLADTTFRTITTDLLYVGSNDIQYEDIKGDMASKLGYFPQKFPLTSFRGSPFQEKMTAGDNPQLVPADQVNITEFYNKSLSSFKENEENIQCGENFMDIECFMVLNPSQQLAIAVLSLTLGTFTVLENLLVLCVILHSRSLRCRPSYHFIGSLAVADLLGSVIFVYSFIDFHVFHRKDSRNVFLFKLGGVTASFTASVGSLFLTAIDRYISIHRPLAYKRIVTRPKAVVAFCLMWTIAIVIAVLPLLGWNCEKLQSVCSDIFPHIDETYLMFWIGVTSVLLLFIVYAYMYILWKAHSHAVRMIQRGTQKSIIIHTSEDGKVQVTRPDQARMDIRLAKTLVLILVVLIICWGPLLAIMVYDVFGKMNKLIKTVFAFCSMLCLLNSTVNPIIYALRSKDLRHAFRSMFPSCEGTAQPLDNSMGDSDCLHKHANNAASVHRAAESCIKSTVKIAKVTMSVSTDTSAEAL

On to `CCCCCCC(C)(C)c1cc(OCCCCCCCCCCOc2cc(C(C)(C)CCCCCC)cc3c2-c2nn(CC)cc2C(C)(C)O3)c2c(c1)OC(C)(C)c1cn(CC)nc1-2` [compound 23, bivalent chromenopyrazole 23 (R1 = N2-Et, n = 8)], for which the Ki was 5.8 ± 1.5 µM on CB2R (hCB2R) [1] and above 40 µM on CB1R (hCB1R) [2].

For `CCCCCCCCCCCCCCOc1cc(C(C)(C)CCCCCC)cc2c1-c1c(cnn1CC)C(C)(C)O2` [compound 14, 7-(1,1-Dimethylheptyl)-1-ethyl-1,4-dihydro-4,4-dimethyl-9-tetradecyloxychromeno[4,3-c]pyrazole], the Ki on CB1R (hCB1R) [3] and on CB2R (hCB2R) [4] was above 40 µM each time.

Regarding `CCCCCCCCCCOc1cc(C(C)(C)CCCCCC)cc2c1-c1c(cnn1CC)C(C)(C)O2` [compound 10, 9-Decyloxy-7-(1,1-dimethylheptyl)-1-ethyl-1,4-dihydro-4,4-dimethylchromeno[4,3-c]pyrazole], the inhibition constant Ki on CB1R (hCB1R) [3] and on CB2R (hCB2R) [4] was above 40 µM each time.

For `CCCCCCC(C)(C)c1cc(OCCCCCCOc2cc(C(C)(C)CCCCCC)cc3c2-c2c(cnn2CC)C(C)(C)O3)c2c(c1)OC(C)(C)c1cnn(CC)c1-2` [compound 18, bivalent chromenopyrazole 18 (R1 = N1-Et, n = 4)], the Ki at CB2R (hCB2R) [1] is 28.1 ± 1.6 µM; on CB1R (hCB1R) [2], above 40 µM.

Turning to `CCCCCCC(C)(C)c1cc(OCCCCCCCCCCCCCCCCOc2cc(C(C)(C)CCCCCC)cc3c2-c2nn(CC)cc2C(C)(C)O3)c2c(c1)OC(C)(C)c1cn(CC)nc1-2` [compound 29, bivalent chromenopyrazole 29 (R1 = N2-Et, n = 14)], the results for the Ki at CB2R (hCB2R) [1] and on CB1R (hCB1R) [2] were 2.12 ± 0.21 µM and above 40 µM, respectively.

As to `CCCCCCC(C)(C)c1cc(OCCCCCCCCCCCCOc2cc(C(C)(C)CCCCCC)cc3c2-c2nn(CC)cc2C(C)(C)O3)c2c(c1)OC(C)(C)c1cn(CC)nc1-2` [compound 25, bivalent chromenopyrazole 25 (R1 = N2-Et, n = 10)], on CB2R (hCB2R) [5], the EC50 was 0.0631 µM. In addition, the Ki on CB2R (hCB2R) [1] is 0.3 ± 0.1 µM; on CB1R (hCB1R) [2], above 40 µM.

Regarding `CCCCCCC(C)(C)c1cc(OCCCCCCCCCCCCOc2cc(C(C)(C)CCCCCC)cc3c2-c2c(cnn2CC)C(C)(C)O3)c2c(c1)OC(C)(C)c1cnn(CC)c1-2` [compound 24, bivalent chromenopyrazole 24 (R1 = N1-Et, n = 10)], at CB2R (hCB2R) [5], the EC50 is 0.0631 µM. Moreover, the figures for the Ki at CB2R (hCB2R) [1] and at CB1R (hCB1R) [2] were 0.4 ± 0.14 µM and above 40 µM, respectively.

Turning to `CCCCCCCCCCCCCCCCOc1cc(C(C)(C)CCCCCC)cc2c1-c1c(cnn1CC)C(C)(C)O2` [compound 16, 7-(1,1-Dimethylheptyl)-1-ethyl-9-hexadecyloxy-1,4-dihydro-4,4-dimethylchromeno[4,3-c]pyrazole], the Ki at CB1R (hCB1R) [3] and on CB2R (hCB2R) [4] was above 40 µM throughout.

On to `CCCCCCCCOc1cc(C(C)(C)CCCCCC)cc2c1-c1c(cnn1CC)C(C)(C)O2` [compound 8, 7-(1,1-Dimethylheptyl)-1-ethyl-1,4-dihydro-4,4-dimethyl-9-octyloxychromeno[4,3-c]pyrazole], for which the Ki at CB1R (hCB1R) [3] and on CB2R (hCB2R) [4] was above 40 µM in each case.

As to `CCCCCCC(C)(C)c1cc(OCCCCCCCCCCCCCCOc2cc(C(C)(C)CCCCCC)cc3c2-c2c(cnn2CC)C(C)(C)O3)c2c(c1)OC(C)(C)c1cnn(CC)c1-2` [compound 26], on CB2R (hCB2R) [5], the EC50 is 0.316 µM. Moreover, the Ki on CB2R (hCB2R) [1] is 0.8 ± 0.1 µM; at CB1R (hCB1R) [2] it was above 40 µM.

For `CCCCCCCCOc1cc(C(C)(C)CCCCCC)cc2c1-c1nn(CC)cc1C(C)(C)O2` [compound 9, 7-(1,1-Dimethylheptyl)-2-ethyl-2,4-dihydro-4,4-dimethyl-9-octyloxychromeno[4,3-c]pyrazole], the Ki on CB1R (hCB1R) [3] and at CB2R (hCB2R) [4] was above 40 µM throughout.

Consider `CCCCCCOc1cc(C(C)(C)CCCCCC)cc2c1-c1nn(CC)cc1C(C)(C)O2` [compound 7, 7-(1,1-Dimethylheptyl)-2-ethyl-9-hexyloxy-2,4-dihydro-4,4-dimethylchromeno[4,3-c]pyrazole], for which the Ki on CB1R (hCB1R) [3] and on CB2R (hCB2R) [4] was above 40 µM in each case.

For `CCCCCCCCCCCCOc1cc(C(C)(C)CCCCCC)cc2c1-c1c(cnn1CC)C(C)(C)O2` [compound 12, 7-(1,1-Dimethylheptyl)-9-dodecyloxy-1-ethyl-1,4-dihydro-4,4-dimethylchromeno[4,3-c]pyrazole], the Ki at CB1R (hCB1R) [3] and at CB2R (hCB2R) [4] was above 40 µM throughout.

As to `CCCCCCOc1cc(C(C)(C)CCCCCC)cc2c1-c1c(cnn1CC)C(C)(C)O2` [compound 6, 7-(1,1-Dimethylheptyl)-1-ethyl-9-hexyloxy1,4-Dihydro-4,4-dimethylchromeno[4,3-c]pyrazole], the Ki at CB1R (hCB1R) [3] and at CB2R (hCB2R) [4] was above 40 µM each time.

Regarding `CCCCCCCCCCCCOc1cc(C(C)(C)CCCCCC)cc2c1-c1nn(CC)cc1C(C)(C)O2` [compound 13, 7-(1,1-Dimethylheptyl)-9-dodecyloxy-2-ethyl-2,4-dihydro-4,4-dimethylchromeno[4,3-c]pyrazole], the Ki on CB1R (hCB1R) [3] and on CB2R (hCB2R) [4] was above 40 µM in each case.

`CCCCCCCCCCOc1cc(C(C)(C)CCCCCC)cc2c1-c1nn(CC)cc1C(C)(C)O2` [compound 11, 9-Decyloxy-7-(1,1-dimethylheptyl)-2-ethyl-2,4-dihydro-4,4-dimethylchromeno[4,3-c]pyrazole]: the inhibitory constant (Ki) on CB1R (hCB1R) [3] and on CB2R (hCB2R) [4] was above 40 µM in each case.

In the case of `CCCCCCC(C)(C)c1cc(OCCCCCCCCOc2cc(C(C)(C)CCCCCC)cc3c2-c2c(cnn2CC)C(C)(C)O3)c2c(c1)OC(C)(C)c1cnn(CC)c1-2` [compound 20, bivalent chromenopyrazole 20 (R1 = N1-Et, n = 6)], the Ki on CB2R (hCB2R) [1] is 2.2 ± 0.7 µM; at CB1R (hCB1R) [2], above 40 µM.

As for `CCCCCCC(C)(C)c1cc(OCCCCCCOc2cc(C(C)(C)CCCCCC)cc3c2-c2nn(CC)cc2C(C)(C)O3)c2c(c1)OC(C)(C)c1cn(CC)nc1-2` [compound 19, bivalent chromenopyrazole 19 (R1 = N2-Et, n = 4)], the Ki at CB2R (hCB2R) [1] is 12.4 ± 2 µM; at CB1R (hCB1R) [2], above 40 µM.

In general, Ki refers to a dissociation constant, usually derived from enzyme kinetics or from competition with a known ligand.
